These compounds were tested against T1, α-amylase from Aspergillus oryzae (Aspergillus oryzae, UniProt P0C1B3) (assay: not given). Details: pure caffeoylquinic acids (CQA); acarbose reference; read-out: Inhibitory activity against enzyme as IC50 α-Amylase.
T1 construct: purchased Sigma-Aldrich (St. Louis, MO, USA) 10065
Assay type: biochemical
Experimental: α-Amylase inhibitory activity was assayed according to a previously published spectrophotometric protocol (Olennikov and Kashchenko, [2014]). Sample solution in DMSO (10 μL) at varying concentrations (10, 100, 250, 500, and 1,000 μg/mL), 30 μL of phosphate buffer (pH 5.0) and 10 μL of α-amylase from Aspergillus oryzae (3 U/mL) were incubated for 20 min at . Then 10 μL of 2% starch solution, 40 μL of phosphate buffer (pH 5.0) and 100 μL of the reagent were added and incubated for 30 min at . The reagent was a solution of K2HPO4 (0.8 mM), KH2PO4 (0.4 mM), phenol (220 mM), 4-aminoantipyrine (1.5 μM), glucose oxidase from Aspergillus oryzae (3 U/mL), and peroxidase from horseradish (0.3 U/mL) in deionized water. Absorbance was measured at 510 nm. […] The ability to inhibit α-amylase was calculated using the following equation: […]
(§1) Values are expressed as mean obtained from five independent experiments.
For `O=C(/C=C/c1ccc(O)c(O)c1)O[C@H]1[C@H](O)C[C@](O)(C(=O)O)C[C@H]1O` [Compound 4-O-CQA, 4-O-Caffeoylquinic acid], the IC50 was 110 ± 3.39 µM.
`O=C(/C=C/c1ccc(O)c(O)c1)OC1CC(O)(C(=O)O)CC(O)C1OC(=O)/C=C/c1ccc(O)c(O)c1` (stereo not drawn) [3,4-Di-O-CQA, 3,4-Di-O-caffeoylquinic acid] was tested, and the IC50 was 67.2 ± 2.01 µM.
`O=C(/C=C/c1ccc(O)c(O)c1)O[C@@H]1C[C@](O)(C(=O)O)C[C@@H](O)[C@H]1O` [Compound 5-O-CQA, 5-O-Caffeoylquinic acid] was tested, and the IC50 was 84.9 ± 2.37 µM.
`O=C(/C=C/c1ccc(O)c(O)c1)OC1(C(=O)O)C[C@@H](O)C(O)[C@H](O)C1` (stereo partly drawn) [Compound 1-O-CQA] was tested, and the IC50 was 172 ± 5.34 µM.
`O=C(/C=C/c1ccc(O)c(O)c1)OC1CC(OC(=O)/C=C/c2ccc(O)c(O)c2)(C(=O)O)CC(O)C1O` (stereo not drawn) [1,3-Di-O-CQA, 1,3-Di-O-caffeoylquinic acid] showed an IC50 of 101 ± 2.81 µM.
`O=C(C=Cc1ccc(O)c(O)c1)OC1CC(OC(=O)C=Cc2ccc(O)c(O)c2)(C(=O)O)CC(O)C1O` (stereo not drawn) [1,5-Di-O-CQA, 1,5-Di-O-caffeoylquinic acid] gave an IC50 of 77.4 ± 2.24 µM.
`O=C(/C=C/c1ccc(O)c(O)c1)OC1[C@H](OC(=O)/C=C/c2ccc(O)c(O)c2)CC(O)(C(=O)O)C[C@H]1OC(=O)/C=C/c1ccc(O)c(O)c1` (stereo partly drawn) [3,4,5-Tri-O-CQA] showed an IC50 of 40.6 ± 1.05 µM.
For `O=C(/C=C/c1ccc(O)c(O)c1)OC1CC(O)(C(=O)O)CC(OC(=O)/C=C/c2ccc(O)c(O)c2)C1O` (stereo not drawn) [3,5-Di-O-CQA, 3,5-Di-O-caffeoylquinic acid], the IC50 was 51.3 ± 1.64 µM.
With `O=C(/C=C/c1ccc(O)c(O)c1)O[C@@H]1C[C@](O)(C(=O)O)C[C@@H](O)[C@H]1O` [Compound 3-O-CQA, 3-O-caffeoylquinic acid] the IC50 was 170 ± 4.41 µM.
`O=C(/C=C/c1ccc(O)c(O)c1)O[C@@H]1[C@H](O)C[C@@](O)(C(=O)O)C[C@H]1OC(=O)/C=C/c1ccc(O)c(O)c1` [4,5-Di-O-CQA, 4,5-Di-O-caffeoylquinic acid] showed an IC50 of 42.3 ± 1.18 µM.

The compounds below were run against T2, α-Glucosidase from Saccharomyces cerevisiae (Saccharomyces cerevisiae, UniProt P53341) (assay: α-glucosidase inhibition assay, spectrophotometric method). Details: pure caffeoylquinic acids (CQA); acarbose reference; read-out: Inhibitory activity against enzyme as IC50 α-Glucosidase.
T2 construct: purchased Sigma-Aldrich (St. Louis, MO, USA) G5003
T2 sequence (P53341 whole entry): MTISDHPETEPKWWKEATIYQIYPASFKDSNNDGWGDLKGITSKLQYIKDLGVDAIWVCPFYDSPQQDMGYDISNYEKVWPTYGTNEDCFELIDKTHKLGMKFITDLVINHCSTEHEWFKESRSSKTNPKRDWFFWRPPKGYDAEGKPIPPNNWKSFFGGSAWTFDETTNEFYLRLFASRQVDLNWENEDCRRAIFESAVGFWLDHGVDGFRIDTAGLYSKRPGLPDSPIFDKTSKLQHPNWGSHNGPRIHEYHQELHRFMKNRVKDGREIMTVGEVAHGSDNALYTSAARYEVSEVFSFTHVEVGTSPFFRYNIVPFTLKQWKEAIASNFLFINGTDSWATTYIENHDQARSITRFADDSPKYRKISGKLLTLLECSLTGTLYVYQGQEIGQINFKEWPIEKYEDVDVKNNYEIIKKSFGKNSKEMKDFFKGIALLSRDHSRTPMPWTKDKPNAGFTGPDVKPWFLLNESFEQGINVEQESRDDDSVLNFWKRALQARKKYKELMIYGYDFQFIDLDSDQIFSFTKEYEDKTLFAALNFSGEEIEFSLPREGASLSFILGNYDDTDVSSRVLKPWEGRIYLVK
Assay type: biochemical
Experimental: The α-glucosidase inhibition assay was performed using spectrophotometric method (Olennikov et al., [2017b]). α-Glucosidase from Saccharomyces cerevisiae was dissolved in phosphate buffer (pH 6.8) containing bovine serum albumin (2 mg/mL) up to 0.5 U/mL concentration. Solution (10 μL) of sample in DMSO–phosphate buffer, pH 6.8 (1:9) at varying concentrations (10, 100, 250, 500, and 1,000 μg/mL) was premixed with 490 μL of phosphate buffer (pH 6.8) and 250 μL 5 mM p-nitrophenyl α-D-glucopyranoside. After preincubating at for 5 min, 250 μL α-glucosidase (0.5 U/mL) was added and incubated at for 15 min. The reaction was terminated by the addition of 2,000 μL Na2CO3 (200 mM). Absorbance was measured at 400 nm. […] The ability to inhibit α-glucosidase was calculated using the following equation: […]
as §1
Work on `O=C(/C=C/c1ccc(O)c(O)c1)O[C@H]1[C@H](O)C[C@](O)(C(=O)O)C[C@H]1O` [Compound 4-O-CQA, 4-O-Caffeoylquinic acid] yielded an IC50 of 1030 ± 40 µM.
In the case of `O=C(/C=C/c1ccc(O)c(O)c1)OC1CC(O)(C(=O)O)CC(O)C1OC(=O)/C=C/c1ccc(O)c(O)c1` (stereo not drawn) [3,4-Di-O-CQA, 3,4-Di-O-caffeoylquinic acid], the IC50 is reported as 210 ± 6.5 µM.
`O=C(/C=C/c1ccc(O)c(O)c1)OC1(C(=O)O)C[C@@H](O)C(O)[C@H](O)C1` (stereo partly drawn) [Compound 1-O-CQA] showed an IC50 of 1240 ± 42.1 µM.
In the case of `O=C(/C=C/c1ccc(O)c(O)c1)OC1CC(OC(=O)/C=C/c2ccc(O)c(O)c2)(C(=O)O)CC(O)C1O` (stereo not drawn) [1,3-Di-O-CQA, 1,3-Di-O-caffeoylquinic acid], the IC50 is reported as 984 ± 28.5 µM.
For `O=C(C=Cc1ccc(O)c(O)c1)OC1CC(OC(=O)C=Cc2ccc(O)c(O)c2)(C(=O)O)CC(O)C1O` (stereo not drawn) [1,5-Di-O-CQA, 1,5-Di-O-caffeoylquinic acid], the IC50 was 754 ± 23.4 µM.
Compound `O=C(/C=C/c1ccc(O)c(O)c1)OC1[C@H](OC(=O)/C=C/c2ccc(O)c(O)c2)CC(O)(C(=O)O)C[C@H]1OC(=O)/C=C/c1ccc(O)c(O)c1` (stereo partly drawn) [3,4,5-Tri-O-CQA] has an IC50 of 61.1 ± 1.77 µM.
Compound `O=C(/C=C/c1ccc(O)c(O)c1)OC1CC(O)(C(=O)O)CC(OC(=O)/C=C/c2ccc(O)c(O)c2)C1O` (stereo not drawn) [3,5-Di-O-CQA, 3,5-Di-O-caffeoylquinic acid] has an IC50 of 184 ± 5.34 µM.
In the case of `O=C(/C=C/c1ccc(O)c(O)c1)O[C@@H]1[C@H](O)C[C@@](O)(C(=O)O)C[C@H]1OC(=O)/C=C/c1ccc(O)c(O)c1` [4,5-Di-O-CQA, 4,5-Di-O-caffeoylquinic acid], the IC50 is reported as 62.1 ± 1.49 µM.
